Assay results as given in patent publication US8613927B2, “High affinity human antibodies to human nerve growth factor” (Regeneron Pharmaceuticals, Inc., priority 2007, dated 2013).

Columns and labels:
[1] = target: Human NGF binding to human TrkA-hFc (Homo sapiens, UniProt P01138, DEL136-138/DEL208-209); experiment: BIACORE receptor blocking assay, free NGF bound to TrkA-hFc; settings: percentage free NGF bound; NGF 10-25 nM with molar excess of antibody; NGF alone = 100%
From the text: To identify blocking antibodies, a receptor blocking assay was designed using a BIACORE™ 3000 instrument. Recombinant human TrkA-hFc and human p75-hFc proteins were amine-coupled to a CM5 chip to a density of about 5000-6000 RU.

C57BL/6 mice = experiment: Post-operative incision pain model, thermal hyperalgesia in Hargreaves' test; type: in vivo, mouse; settings: for mean percent change from Hargreaves baseline: Table 14; for Hargreaves' test result (thermal hyperalgesia): Table 16
Protocol: Post-operative incision pain model. […] For the plantar incision surgery, C57BL/6 mice under isoflurane received an incision through skin, fascia and then isolating the underlying flexor muscle and bisecting vertically. After suture and recovery, the mice were tested for thermal hyperalgesia in the Hargreaves' test and for guarding behavior in the weight bearing test (model 600, IITC Life Science) for 5 days.
Thermal hyperalgesia was studied in the Hargreaves' test and mechanical allodynia was tested in the von Frey test. In this latter test, mice were tested after being acclimated for 2-3 hours for 4 days in an apparatus with a wire mesh floor. The test was performed by applying, in ascending order, a series of von Frey hairs through the wire mesh onto the plantar surface of the hind paw with the incision. A response was considered positive if the paw was raised from the platform in response to application of the filament. Starting from the thinnest hair, each von Frey filament was applied up to five times until a response was observed.

Human NGF binding to human TrkA-hFc, sequence (P01138 with tags, fused parts or gaps DEL136-138/DEL208-209): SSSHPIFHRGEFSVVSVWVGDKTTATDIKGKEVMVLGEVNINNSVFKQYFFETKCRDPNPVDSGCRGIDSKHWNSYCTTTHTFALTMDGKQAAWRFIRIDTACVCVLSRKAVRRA

tanezumab [RN624]
% Binding TrkA-hFc [1]: 10% | reduction of post-operative pain vs vehicle, Hargreaves' test (C57BL/6 mice; 10 mg/kg s.c. 1 hr prior to incision, p<0.001-0.05): significantly reduced the post-operative pain | reversal of thermal hyperalgesia (C57BL/6 mice; 25 mg/kg i.p. on day 1 post-surgery, by 72 hours, p<0.001-0.01): return to baseline was not observed | mean percent change from Hargreaves baseline (C57BL/6 mice; 10 mg/kg s.c. 1 hr prior to incision, Baseline, ±SEM): 0.00 ± 0.0% | mean percent change from Hargreaves baseline (C57BL/6 mice; 10 mg/kg s.c. pre-incision, Day 1 after surgery): −62.5 ± 10.6% | mean percent change from Hargreaves baseline (C57BL/6 mice; 10 mg/kg s.c. pre-incision, Day 2 after surgery): −55.2 ± 9.4% | mean percent change from Hargreaves baseline (C57BL/6 mice; 10 mg/kg s.c. pre-incision, Day 3 after surgery): −5.3 ± 12.1% | mean percent change from Hargreaves baseline (C57BL/6 mice; 10 mg/kg s.c. pre-incision, Day 4 after surgery): −6.4 ± 8.7% | mean percent change from Hargreaves baseline (C57BL/6 mice; 10 mg/kg s.c. pre-incision, Day 5 after surgery): −5.3 ± 5.6% | Hargreaves' test result (thermal hyperalgesia) (C57BL/6 mice; 25 mg/kg i.p. on day 1 post-surgery, Baseline): 0.0 ± 0.0 | Hargreaves' test result (thermal hyperalgesia) (C57BL/6 mice; 25 mg/kg i.p., 6 hr after treatment): −68.1 ± 5.2 | Hargreaves' test result (thermal hyperalgesia) (C57BL/6 mice; 25 mg/kg i.p., 23 hr after treatment): −40.5 ± 8.9 | Hargreaves' test result (thermal hyperalgesia) (C57BL/6 mice; 25 mg/kg i.p., 47 hr after treatment): −37.6 ± 7.2 | Hargreaves' test result (thermal hyperalgesia) (C57BL/6 mice; 25 mg/kg i.p., 72 hr after treatment): −47.2 ± 8.0 | Hargreaves' test result (thermal hyperalgesia) (C57BL/6 mice; 25 mg/kg i.p., Day 1 (post-surgery, before injection)): −74.7 ± 4.3
